Data on eight compounds can be found in patent US11180470B2, “Herbicidal pyrimidine compounds” (BASF SE, priority 2016, dated 2021).

The test system of one test is SETVI. Kind of test: greenhouse experiment, post-emergence treatment. The test is classed as in vivo, Setaria viridis. The settings on record: post-emergence method, application rate 2000 g/ha, scale from 0 to 100. From the text: (§1) The culture containers used were plastic flowerpots containing loamy sand with approximately 3.0% of humus as the substrate. The seeds of the test plants were sown separately for each species.
(§2) For the post-emergence treatment, the test plants were first grown to a height of 3 to 15 cm, depending on the plant habit, and only then treated with the active ingredients which had been suspended or emulsified in water. For this purpose, the test plants were either sown directly and grown in the same containers, or they were first grown separately as seedlings and transplanted into the test containers a few days prior to treatment.
(§3) Depending on the species, the plants were kept at 10-25° C. or 20-35° C., respectively.
(§4) The test period extended over 2 to 4 weeks. During this time, the plants were tended, and their response to the individual treatments was evaluated.
(§5) Evaluation was carried out using a scale from 0 to 100. 100 means no emergence of the plants, or complete destruction of at least the aerial moieties, and 0 means no damage, or normal course of growth. A good herbicidal activity is given at values of at least 70 and a very good herbicidal activity is given at values of at least 85.
(§6) The plants used in the greenhouse experiments were of the following species: […]

Test [1] relates to ECHCG. In words: greenhouse experiment, pre-emergence treatment. Type of test: in vivo, Echinocloa crus-galli. Particulars: pre-emergence method, application rate 2000 g/ha, scale from 0 to 100. From the text: (§7) The seeds of the test plants were sown separately for each species. For the pre-emergence treatment, the active ingredients, which had been suspended or emulsified in water, were applied directly after sowing by means of finely distributing nozzles. The containers were irrigated gently to promote germination and growth and subsequently covered with transparent plastic hoods until the plants had rooted. This cover caused uniform germination of the test plants, unless this had been impaired by the active ingredients. Depending on the species, the plants were kept at 10-25° C. or 20-35° C., respectively. The test period extended over 2 to 4 weeks. During this time, the plants were tended, and their response to the individual treatments was evaluated. Evaluation was carried out using a scale from 0 to 100. 100 means no emergence of the plants, or complete destruction of at least the aerial moieties, and 0 means no damage, or normal course of growth. A good herbicidal activity is given at values of at least 70 and a very good herbicidal activity is given at values of at least 85. The plants used in the greenhouse experiments were of the following species: [table]

The next test deals with ALOMY. Kind of test: greenhouse experiment, post-emergence treatment. Type of test: in vivo, Alopecurus myosuroides. Particulars: post-emergence method, application rate 2000 g/ha, scale from 0 to 100.
Description: as §1, §2, §3, §4, §5, §6

For another test, the system named is APESV. Kind of test: greenhouse experiment, pre-emergence treatment. The test is classed as in vivo, Apera spica-venti. Particulars: pre-emergence method, application rate 2000 g/ha, scale from 0 to 100.
Description: as §7

A further test concerns AVEFA. In words: greenhouse experiment, post-emergence treatment. The settings on record: post-emergence method, application rate 2000 g/ha, scale from 0 to 100. Type of test: in vivo, Avena fatua.
Description: as §1, §2, §3, §4, §5, §6

For test [2], the system named is ECHCG. Kind of test: greenhouse experiment, post-emergence treatment. Type of test: in vivo, Echinocloa crus-galli. Particulars: post-emergence method, application rate 2000 g/ha, scale from 0 to 100. On the procedure: The seeds of the test plants were sown separately for each species. […] For this purpose, the test plants were either sown directly and grown in the same containers, or they were first grown separately as seedlings and transplanted into the test containers a few days prior to treatment. Depending on the species, the plants were kept at 10-25° C. or 20-35° C., respectively. The test period extended over 2 to 4 weeks. During this time, the plants were tended, and their response to the individual treatments was evaluated. Evaluation was carried out using a scale from 0 to 100. 100 means no emergence of the plants, or complete destruction of at least the aerial moieties, and 0 means no damage, or normal course of growth. A good herbicidal activity is given at values of at least 70 and a very good herbicidal activity is given at values of at least 85. The plants used in the greenhouse experiments were of the following species: [table]

The next test relates to AMARE. In words: greenhouse experiment, post-emergence treatment. Type of test: in vivo, Amaranthus retroflexus. The settings on record: post-emergence method, application rate 2000 g/ha, scale from 0 to 100.
Description: as §1, §2, §3, §4, §5, §6

The test system of another test is ABUTH. In words: greenhouse experiment, post-emergence treatment. Type of test: in vivo, Abutilon theophrasti. Particulars: post-emergence method, application rate 2000 g/ha, scale from 0 to 100.
Description: as §1, §2, §3, §4, §5, §6

With `COC(=O)c1nc(C2CC2)ncc1-c1nc(C(F)(F)F)ccc1F` [Example 61], in the test on SETVI, the “herbicidal activity against SETVI” value is “very good (a very good herbicidal activity is given at values of at least 85)”. Moreover, in the test on ECHCG [1], the “herbicidal activity against ECHCG” value is listed as “very good (a very good herbicidal activity is given at values of at least 85)”. In addition, the “herbicidal activity against ALOMY” value in the test on ALOMY is on record as “very good (a very good herbicidal activity is given at values of at least 85)”. For the same compound, the “herbicidal activity against APESV” value in the test on APESV is reported as “good (A good herbicidal activity is given at values of at least 70)”. Besides, the “herbicidal activity against AVEFA” value in the test with AVEFA is on record as “very good (a very good herbicidal activity is given at values of at least 85)”.

In the case of `COC(=O)c1nc(C2CC2)ncc1-c1cnccc1Br` [Example 34], in the test on SETVI, the “herbicidal activity against SETVI” value is reported as “very good (a very good herbicidal activity is given at values of at least 85)”. Moreover, in the test on ECHCG [2], the “herbicidal activity against ECHCG” value is listed as “very good (a very good herbicidal activity is given at values of at least 85)”. Further, the “herbicidal activity against ALOMY” value with ALOMY is reported as “very good (a very good herbicidal activity is given at values of at least 85)”.

In the case of `COC(=O)c1nc(C2CC2)ncc1-c1ncccc1F` [Example 19], in the test on SETVI, the “herbicidal activity against SETVI” value is given as “very good (a very good herbicidal activity is given at values of at least 85)”. For the same compound, the “herbicidal activity against ECHCG” value in the test on ECHCG [2] was “very good (a very good herbicidal activity is given at values of at least 85)”. Besides, the “herbicidal activity against AMARE” value with AMARE is given as “very good (a very good herbicidal activity is given at values of at least 85)”.

Consider `COC(=O)c1nc(C2CC2)ncc1-c1cc(C(F)(F)F)ncc1Cl` [Example 63], for which the “herbicidal activity against SETVI” value in the test with SETVI is given as “very good (a very good herbicidal activity is given at values of at least 85)”. In addition, in the test on ECHCG [1], the “herbicidal activity against ECHCG” value was “very good (a very good herbicidal activity is given at values of at least 85)”. In addition, the “herbicidal activity against ABUTH” value in the test with ABUTH is “very good (a very good herbicidal activity is given at values of at least 85)”. The “herbicidal activity against ALOMY” value in the test on ALOMY is “very good (a very good herbicidal activity is given at values of at least 85)”. In the test with APESV, the “herbicidal activity against APESV” value is given as “very good (a very good herbicidal activity is given at values of at least 85)”.

Consider `COC(=O)c1nc(C2CC2)ncc1-c1ncc(F)cc1Cl` [Example 41], for which, in the test with SETVI, the “herbicidal activity against SETVI” value was “very good (a very good herbicidal activity is given at values of at least 85)”. In addition, the “herbicidal activity against ECHCG” value in the test with ECHCG [1] is “very good (a very good herbicidal activity is given at values of at least 85)”. For the same compound, the “herbicidal activity against ALOMY” value in the test with ALOMY was “very good (a very good herbicidal activity is given at values of at least 85)”. The “herbicidal activity against APESV” value with APESV is listed as “very good (a very good herbicidal activity is given at values of at least 85)”. In the test on AVEFA, the “herbicidal activity against AVEFA” value is recorded as “very good (a very good herbicidal activity is given at values of at least 85)”.

As for `COC(=O)c1nc(C2CC2)ncc1-c1ccncc1F` [Example 33], the “herbicidal activity against SETVI” value in the test with SETVI is recorded as “very good (a very good herbicidal activity is given at values of at least 85)”. For the same compound, in the test with APESV, the “herbicidal activity against APESV” value is reported as “good (A good herbicidal activity is given at values of at least 70)”. Moreover, in the test with AMARE, the “herbicidal activity against AMARE” value was “very good (a very good herbicidal activity is given at values of at least 85)”. Besides, in the test with AVEFA, the “herbicidal activity against AVEFA” value was “very good (a very good herbicidal activity is given at values of at least 85)”.

Regarding `COC(=O)c1nc(C2CC2)ncc1-c1ncccc1Br` [Example 28], the “herbicidal activity against SETVI” value in the test with SETVI is reported as “good (A good herbicidal activity is given at values of at least 70)”. For the same compound, the “herbicidal activity against ECHCG” value with ECHCG [1] is “very good (a very good herbicidal activity is given at values of at least 85)”. For the same compound, in the test on ALOMY, the “herbicidal activity against ALOMY” value is recorded as “very good (a very good herbicidal activity is given at values of at least 85)”. The “herbicidal activity against APESV” value in the test on APESV is listed as “very good (a very good herbicidal activity is given at values of at least 85)”.

`COC(=O)c1nc(C2CC2)ncc1-c1ncc(F)cc1F` [Example 31]: the “herbicidal activity against SETVI” value with SETVI is “very good (a very good herbicidal activity is given at values of at least 85)”. In the test with ABUTH, the “herbicidal activity against ABUTH” value was “good (A good herbicidal activity is given at values of at least 70)”. Further, the “herbicidal activity against APESV” value in the test with APESV was “very good (a very good herbicidal activity is given at values of at least 85)”.
